This note sets out measurements from ChEMBL document CHEMBL3396988, “Structure-based design of inhibitors of coagulation factor XIa with novel P1 moieties” (Bioorg Med Chem Lett, 2015).

In series [1] the target is Tissue-type plasminogen activator (Homo sapiens, UniProt P00750). Put plainly: Inhibition of TPA (unknown origin).
Series [2] can be described thus: Volume of distribution at steady state in dog at 1 mg/kg, po or 0.4 mg/kg, iv administered in discrete format. It counts as ADME, organism-based, Canis lupus familiaris. The conditions noted are these: in vivo, read-out: Vdss.
The target in series [3] is T1, Coagulation factor XI (Homo sapiens, UniProt P03951). Put plainly: Inhibition of human coagulation factor 11a at 25 degC.
T1 sequence (P03951 19-387 limits assumed): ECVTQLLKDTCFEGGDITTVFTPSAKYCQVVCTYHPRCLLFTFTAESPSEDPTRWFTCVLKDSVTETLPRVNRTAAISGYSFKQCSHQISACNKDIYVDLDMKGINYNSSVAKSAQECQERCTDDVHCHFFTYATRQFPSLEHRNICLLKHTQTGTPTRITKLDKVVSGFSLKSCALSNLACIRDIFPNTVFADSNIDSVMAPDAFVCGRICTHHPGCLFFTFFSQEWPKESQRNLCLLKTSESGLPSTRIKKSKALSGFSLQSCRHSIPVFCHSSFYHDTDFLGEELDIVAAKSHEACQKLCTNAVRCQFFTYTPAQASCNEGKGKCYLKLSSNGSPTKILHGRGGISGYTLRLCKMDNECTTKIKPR
T1 sequence (P03951 388-625 limits assumed): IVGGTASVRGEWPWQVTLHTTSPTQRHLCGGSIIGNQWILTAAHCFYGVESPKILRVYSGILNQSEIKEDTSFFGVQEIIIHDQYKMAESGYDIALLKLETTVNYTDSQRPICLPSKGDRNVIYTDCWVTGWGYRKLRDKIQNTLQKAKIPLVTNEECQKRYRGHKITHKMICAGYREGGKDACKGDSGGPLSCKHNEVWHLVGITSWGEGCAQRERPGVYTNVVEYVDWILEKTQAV
The nature of series [4]: Oral bioavailability in dog at 1 mg/kg administered in discrete format. The conditions noted are these: in vivo. Type of series: ADME, organism-based, Canis lupus familiaris.
The nature of series [5]: Clearance in dog at 1 mg/kg, po or 0.4 mg/kg, iv administered in discrete format. The settings on record: in vivo. It counts as ADME, organism-based, Canis lupus familiaris.
Series [6] in a line: Permeability of the compound at pH 7.4 by PAMPA method. Type of series: ADME. The conditions noted are these: read-out: permeability. (In PAMPA a lipid-coated filter parts donor from acceptor wells.)
Series [7] can be described thus: Half life in dog at 1 mg/kg, po or 0.4 mg/kg, iv administered in discrete format. Type of series: ADME, organism-based, Canis lupus familiaris. The settings on record: in vivo.
A further series deals with Kallikrein-1 (Homo sapiens, UniProt P06870). Put plainly: Inhibition of tissue kallikrein (unknown origin).
Kallikrein-1, sequence (P06870 whole entry): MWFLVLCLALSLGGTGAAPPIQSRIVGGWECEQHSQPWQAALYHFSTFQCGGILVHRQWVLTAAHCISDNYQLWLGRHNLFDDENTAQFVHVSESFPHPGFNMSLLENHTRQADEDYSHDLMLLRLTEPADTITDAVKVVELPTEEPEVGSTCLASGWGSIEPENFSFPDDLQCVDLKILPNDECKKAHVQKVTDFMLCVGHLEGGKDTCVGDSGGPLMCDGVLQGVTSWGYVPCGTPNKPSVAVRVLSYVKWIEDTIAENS
Series [8] is described as follows: Inhibition of chymotrypsin (unknown origin). On the set-up: species or system Homo sapiens.
The target in another series is Plasminogen (Homo sapiens, UniProt P00747). Put plainly: Inhibition of plasmin (unknown origin).
Plasminogen, sequence (P00747 97-580 limits assumed): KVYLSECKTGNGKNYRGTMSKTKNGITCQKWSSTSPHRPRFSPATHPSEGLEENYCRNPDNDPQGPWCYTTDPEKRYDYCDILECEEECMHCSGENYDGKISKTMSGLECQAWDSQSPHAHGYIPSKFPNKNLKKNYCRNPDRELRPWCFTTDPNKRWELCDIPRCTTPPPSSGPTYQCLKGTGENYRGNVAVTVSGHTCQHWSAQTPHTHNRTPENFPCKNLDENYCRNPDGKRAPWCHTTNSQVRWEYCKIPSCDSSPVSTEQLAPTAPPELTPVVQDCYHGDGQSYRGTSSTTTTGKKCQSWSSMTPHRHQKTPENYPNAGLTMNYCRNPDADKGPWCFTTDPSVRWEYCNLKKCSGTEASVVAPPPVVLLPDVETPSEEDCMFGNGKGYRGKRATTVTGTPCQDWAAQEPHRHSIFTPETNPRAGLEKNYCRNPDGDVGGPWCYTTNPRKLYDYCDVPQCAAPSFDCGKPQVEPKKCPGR
Plasminogen, sequence (P00747 581-810 limits assumed): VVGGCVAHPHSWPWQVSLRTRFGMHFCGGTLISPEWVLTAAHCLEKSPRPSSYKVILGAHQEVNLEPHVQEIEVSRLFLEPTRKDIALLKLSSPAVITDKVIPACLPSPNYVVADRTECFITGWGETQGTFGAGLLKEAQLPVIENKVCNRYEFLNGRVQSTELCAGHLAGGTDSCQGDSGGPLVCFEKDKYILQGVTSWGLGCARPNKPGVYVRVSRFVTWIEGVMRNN
The target in series [9] is T1, Coagulation factor XI. Put plainly: Inhibition of human coagulation factor 11a at 37 degC.
The subject of a further series is Plasma. Put plainly: Anticoagulant activity in human plasma assessed as compound level causing 1.5 times increase in activated partial […] time. It counts as functional.
The nature of series [10]: Half life in dog at 0.5 mg/kg, po or 0.4 mg/kg, iv administered in cassette format. It counts as ADME, organism-based, Canis lupus familiaris. The conditions noted are these: in vivo.
The target in another series is Coagulation factor X (Homo sapiens, UniProt P00742). Put plainly: Inhibition of coagulation factor 10a (unknown origin).
Coagulation factor X, sequence (P00742 41-179 limits assumed): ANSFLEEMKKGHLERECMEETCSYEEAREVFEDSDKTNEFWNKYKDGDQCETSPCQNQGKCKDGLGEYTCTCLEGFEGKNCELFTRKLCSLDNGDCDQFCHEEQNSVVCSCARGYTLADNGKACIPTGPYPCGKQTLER
Coagulation factor X, sequence (P00742 235-488 limits assumed): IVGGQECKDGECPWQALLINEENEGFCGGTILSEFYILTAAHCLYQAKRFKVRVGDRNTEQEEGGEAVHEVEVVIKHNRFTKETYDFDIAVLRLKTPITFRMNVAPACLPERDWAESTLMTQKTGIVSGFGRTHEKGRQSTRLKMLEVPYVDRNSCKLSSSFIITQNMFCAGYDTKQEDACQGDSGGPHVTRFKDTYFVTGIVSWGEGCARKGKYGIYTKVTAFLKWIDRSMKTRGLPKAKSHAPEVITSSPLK
Series [11] can be described thus: Clearance in dog at 0.5 mg/kg, po or 0.4 mg/kg, iv administered in cassette format. Type of series: ADME, organism-based, Canis lupus familiaris. The conditions noted are these: in vivo.
The target in the next series is Prothrombin (Homo sapiens, UniProt P00734). As to the kind of experiment: Inhibition of thrombin (unknown origin).
Another series has as its target Plasma kallikrein (Homo sapiens, UniProt P03952). As to the kind of experiment: Inhibition of plasma kallikrein (unknown origin).
Series [12] can be described thus: Volume of distribution at steady state in dog at 0.5 mg/kg, po or 0.4 mg/kg, iv administered in cassette format. The conditions noted are these: in vivo, read-out: Vdss. It counts as ADME, organism-based, Canis lupus familiaris.
The target of a further series is Trypsin (Homo sapiens, UniProt P07477+P07478+P35030). Put plainly: Inhibition of human trypsin at 25 degC. Type of series: protein assay.
The nature of series [13]: Oral bioavailability in dog at 0.5 mg/kg administered in cassette format. The settings on record: in vivo. It counts as ADME, organism-based, Canis lupus familiaris.
The next series concerns the target Coagulation factor IX (Homo sapiens, UniProt P00740). As to the kind of experiment: Inhibition of coagulation factor 9a (unknown origin).
The target in the next series is T2, Coagulation factor VII (Homo sapiens, UniProt P08709).
T2 sequence (P08709 whole entry): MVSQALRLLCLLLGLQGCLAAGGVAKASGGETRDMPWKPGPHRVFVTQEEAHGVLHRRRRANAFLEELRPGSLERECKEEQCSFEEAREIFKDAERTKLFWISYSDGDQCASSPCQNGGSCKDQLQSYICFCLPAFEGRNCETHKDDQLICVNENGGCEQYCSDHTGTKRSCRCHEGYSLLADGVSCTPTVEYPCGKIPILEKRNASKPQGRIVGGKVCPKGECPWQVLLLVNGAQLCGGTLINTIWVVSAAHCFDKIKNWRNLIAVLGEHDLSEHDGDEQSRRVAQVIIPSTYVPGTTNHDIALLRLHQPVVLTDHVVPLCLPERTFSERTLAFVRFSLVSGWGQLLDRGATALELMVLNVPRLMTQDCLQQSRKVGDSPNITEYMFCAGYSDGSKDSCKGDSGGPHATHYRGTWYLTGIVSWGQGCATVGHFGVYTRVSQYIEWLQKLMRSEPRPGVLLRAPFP
As to the kind of experiment: Inhibition of coagulation factor 7a (unknown origin).

Tissue-type plasminogen activator, sequence (P00750 whole entry): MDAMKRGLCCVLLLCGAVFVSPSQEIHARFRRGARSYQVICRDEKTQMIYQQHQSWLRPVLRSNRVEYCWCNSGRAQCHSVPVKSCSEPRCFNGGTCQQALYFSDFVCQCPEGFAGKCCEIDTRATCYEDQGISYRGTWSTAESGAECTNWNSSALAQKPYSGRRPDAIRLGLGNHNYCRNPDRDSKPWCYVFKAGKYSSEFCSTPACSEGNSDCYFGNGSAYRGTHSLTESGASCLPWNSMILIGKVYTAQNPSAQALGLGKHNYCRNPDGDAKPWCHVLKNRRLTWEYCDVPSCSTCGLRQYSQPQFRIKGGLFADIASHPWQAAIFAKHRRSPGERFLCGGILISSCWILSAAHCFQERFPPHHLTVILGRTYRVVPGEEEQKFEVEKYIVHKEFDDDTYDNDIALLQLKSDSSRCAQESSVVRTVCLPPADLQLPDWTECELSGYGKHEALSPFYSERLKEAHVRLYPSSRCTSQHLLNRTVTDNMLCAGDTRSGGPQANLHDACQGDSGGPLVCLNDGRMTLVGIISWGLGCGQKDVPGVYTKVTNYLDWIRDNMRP
Plasma kallikrein, sequence (P03952 20-390 limits assumed): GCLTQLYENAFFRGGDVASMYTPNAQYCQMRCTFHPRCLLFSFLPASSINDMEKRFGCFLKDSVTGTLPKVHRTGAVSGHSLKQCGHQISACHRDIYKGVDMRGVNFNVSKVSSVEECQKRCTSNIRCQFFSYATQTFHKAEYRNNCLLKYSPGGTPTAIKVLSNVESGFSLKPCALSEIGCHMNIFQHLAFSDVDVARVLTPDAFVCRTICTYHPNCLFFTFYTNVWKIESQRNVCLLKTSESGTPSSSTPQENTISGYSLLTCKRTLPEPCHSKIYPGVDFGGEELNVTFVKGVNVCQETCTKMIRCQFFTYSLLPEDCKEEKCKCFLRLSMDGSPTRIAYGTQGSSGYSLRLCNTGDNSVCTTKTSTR
Plasma kallikrein, sequence (P03952 391-638 limits assumed): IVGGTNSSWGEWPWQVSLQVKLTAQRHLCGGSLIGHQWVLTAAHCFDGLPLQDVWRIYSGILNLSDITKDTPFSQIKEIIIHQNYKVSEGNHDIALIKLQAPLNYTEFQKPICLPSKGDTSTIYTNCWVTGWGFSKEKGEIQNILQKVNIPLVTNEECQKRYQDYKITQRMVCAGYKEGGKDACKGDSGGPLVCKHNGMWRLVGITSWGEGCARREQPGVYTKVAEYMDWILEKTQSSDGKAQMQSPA
Coagulation factor IX, sequence (P00740 47-191 limits assumed): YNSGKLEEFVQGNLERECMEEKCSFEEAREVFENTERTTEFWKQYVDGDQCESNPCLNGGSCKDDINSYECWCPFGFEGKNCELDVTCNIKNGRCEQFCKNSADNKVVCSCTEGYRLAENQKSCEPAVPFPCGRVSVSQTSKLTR
Coagulation factor IX, sequence (P00740 227-461 limits assumed): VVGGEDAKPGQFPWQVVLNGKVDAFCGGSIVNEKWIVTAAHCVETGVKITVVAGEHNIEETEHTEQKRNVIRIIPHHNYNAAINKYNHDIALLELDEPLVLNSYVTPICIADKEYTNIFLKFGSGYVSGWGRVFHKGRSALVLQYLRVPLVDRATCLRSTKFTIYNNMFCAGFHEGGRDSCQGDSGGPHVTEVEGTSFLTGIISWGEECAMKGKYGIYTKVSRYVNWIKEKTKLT

Take `NC[C@H]1CC[C@H](C(=O)N[C@@H](Cc2ccccc2)c2nc(-c3ccc4c(N)n[nH]c4c3)c(Cl)[nH]2)CC1`: the Ki was more than 22 µM in [1]; 0.00031 µM on Coagulation factor XI [3]; 0.65 µM at Kallikrein-1; more than 20.8 µM in series [8]; 8.4 µM on Plasminogen. Moreover, in [2], the Vd was 0.92 L/kg. In addition, the bioavailability in series [4] is 3.6%. The clearance in series [5] was determined as 11.2 mL/min/kg. Further, the Papp in series [6] was found to be 0.03 ×10⁻⁶ cm/s. This compound also gave a half-life in [7] of 1.88 h.

Take `Nc1n[nH]c2cc(-c3c[nH]c([C@H](Cc4ccccc4)NC(=O)/C=C/c4cc(Cl)ccc4-n4cnnn4)n3)ccc12`: the Ki on Coagulation factor XI [9] was determined as 0.005 µM. The Activity in the series with Plasma is 4 µM.

The compound `Nc1n[nH]c2cc(-c3nc([C@H](Cc4ccccc4)NC(=O)/C=C/c4cc(Cl)ccc4-n4cnnn4)[nH]c3Cl)ccc12` showed a half-life in series [10] of 2.2 h. Besides, the Ki is more than 1 µM at Coagulation factor X; more than 13 µM at Prothrombin; 19 µM in series [1]; 0.041 µM at Plasma kallikrein; 0.0012 µM on Coagulation factor XI [3]; 1.2 µM at Kallikrein-1. Also, the Ki on Trypsin is more than 6.2 µM; on Coagulation factor IX, more than 35 µM; at Coagulation factor VII, more than 13 µM; in series [8], 0.66 µM; at Plasminogen, more than 24 µM. The clearance in [11] worked out at 16 mL/min/kg. The Vd in series [12] amounted to 0.8 L/kg. The Activity with Plasma amounted to 3 µM. In series [13], this compound showed a bioavailability of 0%.

In general, Ki refers to a dissociation constant, usually derived from enzyme kinetics or from competition with a known ligand. Broadly, the bioavailability is the share of a dose that reaches the circulation, judged against a reference dose that is usually intravenous. A low value points to little systemic uptake. For orientation: half-life means how long it takes for the measured level to halve. A low value points to fast loss.
